The values that follow come from patent publication US20260138985A1, “Azepino-Indoles for the Treatment of Neurological and Psychiatric Disorders” (Terran Biosciences Inc., priority 2021, published 2026).

Bounds are passed on as bounds.

One series deals with T1, 5-HT2B receptor (Homo sapiens, UniProt P41595).
T1 construct: host or cells: unnamed cell lines
Briefly: Calcium mobilization assay, agonist format, 5-HT2B receptor. The settings on record: read-out: 5-HT2B agonist Efficacy @ 5 µM. It counts as cell-based. The protocol:
(§1) Protocol—in vitro testing at select 5-hydroxytryptamine (5-HT; serotonin) receptors was conducted.
(§2) • 1. Cell lines were expanded from freezer stocks according to standard procedures. • 2. Cells were seeded in a total volume of 20 μL into black-walled, clear-bottom, Poly-D-lysine coated 384-well microplates and incubated at 37° C. for the appropriate time prior to testing.
(§3) • 1. Assays were performed in 1×Dye Loading Buffer consisting of 1× Dye, 1× Additive A and 2.5 mM Probenecid in HBSS/20 mM Hepes. Probenicid was prepared fresh. • 2. Cells were loaded with dye prior to testing. Media was aspirated from cells and replaced with 20 μL Dye Loading Buffer. • 3. Cells were incubated for 30-60 minutes at 37° C.
(§4) • 1. For agonist determination, cells were incubated with sample to induce response. • 2. After dye loading, cells were removed from the incubator and 10 μL HBSS/20 mM Hepes was added. 3× vehicle was included in the buffer when performing agonist dose curves to define • the EC80 for subsequent antagonist assays. Cells were incubated for 30 minutes at room temperature in the dark to equilibrate plate temperature. • 3. Intermediate dilution of sample stocks was performed to generate 4× sample in assay buffer. • 4. Compound agonist activity was measured on a FLIPR Tetra (MDS). Calcium mobilization was monitored for 2 minutes and 10 μL 4× sample in HBSS/20 mM Hepes was added to the cells 5 seconds into the assay.
(§5) • 1. Compound activity was analyzed using CBIS data analysis suite (ChemInnovation, CA). • 2. For agonist mode assays, percentage activity is calculated using the following formula: % Activity=100%×(mean RFU of test sample−mean RFU of vehicle control)/(mean MAX RFU control ligand −mean RFU of vehicle control). • 3. For positive allosteric mode assays, percentage modulation was calculated using the following formula: % Modulation=100%×((mean RFU of test sample−mean RFU of EC20 control)/(mean RFU of MAX control ligand −mean RFU of EC20 control)). • 4. For antagonist and negative allosteric modulation mode assays, percentage inhibition is calculated using the following formula: % Inhibition=100%×(1−(mean RFU of test sample−mean RFU of vehicle control)/(mean RFU of EC80 control−mean RFU of vehicle control)).
(§6) As discussed above, agonism, or partial agonism, of the 5-HT2A receptor (also known as positive allosteric modulation, or 5-HT2A modulation) is useful for the treatment of neurological and psychiatric disorders. For example, 5-HT2A agonism has been correlated with the promotion of neural plasticity (Ly et al., 2018). Agonism of the 5-HT2B receptor has been associated with unwanted cardiac valvulopathy side-effects, a form of cardio-toxicity (Rothman et al., Circulation. 2000, 102, 2836-2841; Fitzgerald et al., Molecular Pharmacology 2000, 57, 75-81). […] Antagonists of the 5-HT2C receptor are also useful for the treatment of neurological and psychiatric disorders (Kennett et al., Neuropharmacology 1997, 36, 609-620).

The nature of series [1]: Metabolic stability in human liver microsomes. The class given is in vitro ADME. The note with it: for difference in half-life and intrinsic clearance versus comparator: Compound 163 vs 8-methoxy-1,2,3,4,5,6-hexahydroazepino[4,5-b]indole, Compounds 1, 2 and 3 vs TBG; for half-life at 0.2 μM: pH 7.4, half life; for half-life at 0.2 μM / microsomal CLint at 0.2 μM / CLint scaled at 0.2 μM: values marked * average of two experiments; for microsomal CLint at 0.2 μM: pH 7.4, intrinsic clearance, read-out: CLint(mic); for CLint scaled at 0.2 μM: pH 7.4, scaled from CLint(mic). As for the experimental part:
Microsomal Assay: Human liver microsomes (20 mg/mL) are obtained from Xenotech, LLC (Lenexa, KS). β-nicotinamide adenine dinucleotide phosphate, reduced form (NADPH), magnesium chloride (MgCl2), and dimethyl sulfoxide (DMSO) are purchased from Sigma-Aldrich.
Determination of Metabolic Stability: 7.5 mM stock solutions of test compounds of the above structural formula (e.g., of an embodiment or aspect of embodiment thereof described herein), or pharmaceutically acceptable salt thereof, are prepared in DMSO. […] The diluted microsomes are added to wells of a 96-well deep-well polypropylene plate in triplicate. […] Reactions are initiated by addition of pre-warmed NADPH solution. The final reaction volume is 0.5 mL and contains 4.0 mg/mL human liver microsomes, 0.2 μM test compound, and 2 mM NADPH in 0.1 M potassium phosphate buffer, pH 7.4, and 3 mM MgCl2. The reaction mixtures are incubated at 37° C., and […] aliquots are removed at 0, 5, 10, 20, and 30 minutes and added to shallow-well 96-well plates which contain […] of ice-cold ACN (acetonitrile) with internal standard to stop the reactions. The plates are stored at 4° C. for 20 minutes after which […] of water is added to the wells of the plate before centrifugation to pellet precipitated proteins. Supernatants are transferred to another 96-well plate and analyzed for amounts of parent remaining by LC-MS/MS using an Applied Bio-systems API 4000 mass spectrometer. The same procedure is followed for the non-deuterated counterpart of the compound and the positive control, 7-ethoxycoumarin (1 μM). Testing is done in triplicate.
Data analysis: The in vitro Ti/s for test compounds are calculated from the slopes of the linear regression of % parent remaining (In) vs incubation time relationship.
[formula] • k=−[slope of linear regression of % parent remaining (In) vs incubation time] • The apparent intrinsic clearance is calculated using the following equation: […]
Data analysis is performed using Microsoft Excel Software.
On the technique in general: Liver microsomes are vesicles of endoplasmic reticulum, rich in cytochrome P450 enzymes.

In another series the target is T2, 5-HT2A receptor (Homo sapiens, UniProt P28223).
T2 construct: host or cells: unnamed cell lines
T2 sequence (P28223 whole entry): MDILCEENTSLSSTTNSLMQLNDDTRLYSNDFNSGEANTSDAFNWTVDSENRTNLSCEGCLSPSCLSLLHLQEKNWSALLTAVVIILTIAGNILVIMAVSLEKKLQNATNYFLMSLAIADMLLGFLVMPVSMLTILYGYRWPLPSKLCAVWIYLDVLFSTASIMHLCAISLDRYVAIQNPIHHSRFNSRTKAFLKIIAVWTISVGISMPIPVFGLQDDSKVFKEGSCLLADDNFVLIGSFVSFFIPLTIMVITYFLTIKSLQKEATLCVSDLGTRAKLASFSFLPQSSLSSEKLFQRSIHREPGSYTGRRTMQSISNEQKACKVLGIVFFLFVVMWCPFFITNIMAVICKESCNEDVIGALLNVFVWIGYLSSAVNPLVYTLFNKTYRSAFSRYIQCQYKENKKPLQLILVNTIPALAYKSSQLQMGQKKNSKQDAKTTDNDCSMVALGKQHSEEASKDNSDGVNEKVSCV
Briefly: Calcium mobilization assay, agonist format, 5-HT2A receptor. It counts as cell-based. The settings on record: read-out: 5-HT2A agonist Efficacy @ 10 µM. As for the experimental part:
as §1, §2, §3, §4, §5, §6

The next series has as its target T3, 5-HT2C receptor (Homo sapiens, UniProt P28335).
T3 construct: host or cells: unnamed cell lines
T3 sequence (P28335 33-458): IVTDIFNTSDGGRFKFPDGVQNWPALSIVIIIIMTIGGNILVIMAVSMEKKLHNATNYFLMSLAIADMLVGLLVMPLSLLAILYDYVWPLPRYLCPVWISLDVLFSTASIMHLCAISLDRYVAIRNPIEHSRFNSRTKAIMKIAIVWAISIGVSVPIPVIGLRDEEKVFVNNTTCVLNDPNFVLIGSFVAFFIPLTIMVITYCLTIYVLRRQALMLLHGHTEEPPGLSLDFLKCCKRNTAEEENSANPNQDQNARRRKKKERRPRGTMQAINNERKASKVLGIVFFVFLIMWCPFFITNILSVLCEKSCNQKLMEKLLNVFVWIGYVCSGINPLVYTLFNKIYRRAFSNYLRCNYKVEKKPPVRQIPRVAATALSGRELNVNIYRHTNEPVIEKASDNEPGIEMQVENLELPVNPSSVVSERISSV
Briefly: Calcium mobilization assay, antagonist format, 5-HT2C receptor. The arrangement: dose or concentration left out as unconfirmed. It counts as cell-based. As for the experimental part: as §1, §2, §3
• 1. For antagonist determination, cells were pre-incubated with sample followed by agonist challenge at the EC80 concentration. • 2. Intermediate dilution of sample stocks was performed to generate 3× sample in assay buffer. • 3. After dye loading, cells were removed from the incubator and […] 3× sample was added. Cells were incubated for 30 minutes at room temperature in the dark to equilibrate plate temperature. Vehicle concentration was 1%. • 4. Compound antagonist activity was measured on a FLIPR Tetra (MDS). Calcium mobilization was monitored for 2 minutes and 10 μL EC80 agonist in HBSS/20 mM Hepes was added to the cells 5 seconds into the assay.
as §5, §6
A general note: Calcium flux is commonly read through the fluorescence of an indicator in the cells.

Usually half-life stands for the time in which the quantity being followed falls by half. The CLint scaled is a measure of how fast metabolising enzymes remove a compound, apart from limits set by blood flow. By inhibition is commonly meant the change of the read-out against control, counted positive when it falls.

T1 sequence (P41595 whole entry): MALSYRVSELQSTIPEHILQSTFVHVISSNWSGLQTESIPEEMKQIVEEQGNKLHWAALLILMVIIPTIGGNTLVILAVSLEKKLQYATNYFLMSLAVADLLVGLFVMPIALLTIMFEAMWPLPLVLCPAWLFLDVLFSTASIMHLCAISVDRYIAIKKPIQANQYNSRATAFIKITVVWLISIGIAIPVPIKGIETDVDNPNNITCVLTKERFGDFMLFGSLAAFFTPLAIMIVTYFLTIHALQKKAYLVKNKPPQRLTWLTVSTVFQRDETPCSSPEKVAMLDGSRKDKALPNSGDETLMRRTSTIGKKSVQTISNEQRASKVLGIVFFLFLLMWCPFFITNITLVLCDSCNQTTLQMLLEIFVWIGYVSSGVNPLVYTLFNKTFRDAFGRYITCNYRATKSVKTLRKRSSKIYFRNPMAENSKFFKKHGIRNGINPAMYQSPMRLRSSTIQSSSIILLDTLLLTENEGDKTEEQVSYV

Consider `[2H]C([2H])([2H])N1CCc2[nH]c3cc(OC)ccc3c2CC1` [Compound 2, 8-methoxy-3-(trideuteriomethyl)-2,4,5,6-tetrahydro-1H-azepino[4,5-b]indole], for which the activation at 5 µM at 5-HT2B receptor is -0.4%. Besides, in series [1], the “difference in half-life and intrinsic clearance versus comparator” value (“difference” below) is “differences in half-life and intrinsic clearance”; the half-life at 0.2 μM came to 1.4 h; the microsomal CLint at 0.2 μM amounted to 16.6 µL/min/mg; the CLint scaled at 0.2 μM is 14.9 mL/min/kg. For the same compound, the activation at 10 µM on 5-HT2A receptor was determined as 38%. In addition, the inhibition on 5-HT2C receptor was 94.5%.
Consider `COc1ccc2c3c([nH]c2c1)CCN(C)CC3` [TBG, 8-methoxy-3-methyl-1,2,3,4,5,6-hexahydroazepino[4,5-b]indole, reference compound], for which the activation at 5 µM at 5-HT2B receptor was -0.9%. In addition, in series [1], the half-life at 0.2 μM is 1.5 h, the microsomal CLint at 0.2 μM is 15.6 µL/min/mg and the CLint scaled at 0.2 μM stood at 14 mL/min/kg. For the same compound, the activation at 10 µM at 5-HT2A receptor came to 38.5%. In addition, at 5-HT2C receptor, the inhibition was 94.7%.
On to `[2H]C([2H])([2H])Oc1ccc2c3c([nH]c2c1)CCNCC3` [Compound 163, 8-(trideuteriomethoxy)-1,2,3,4,5,6-hexahydroazepino[4,5-b]indole], for which, at 5-HT2B receptor, the activation at 5 µM is -0.2%. For the same compound, in series [1], the “difference” value is given as “significant difference in half-life”; the half-life at 0.2 μM is 1.44 h; the microsomal CLint at 0.2 μM came out at 16.1 µL/min/mg; the intrinsic metabolic clearance (CLint scaled) at 0.2 μM is 14.5 mL/min/kg. Besides, the intrinsic clearance ratio in series [1] (compared with 8-methoxy-1,2,3,4,5,6-hexahydroazepino[4,5-b]indole) was more than 1.15. Also, the activation at 10 µM on 5-HT2A receptor is 83%. Further, at 5-HT2C receptor, the inhibition is 97.7%.
Take `[2H]C([2H])([2H])Oc1ccc2c3c([nH]c2c1)CCN(C([2H])([2H])[2H])CC3` [Compound 3, 8-(trideuteriomethoxy)-3-(trideuteriomethyl)-2,4,5,6-tetrahydro-1H-azepino[4,5-b]indole]: at 5-HT2B receptor, the activation at 5 µM was -0.7%. For the same compound, in series [1], the “difference” value is “differences in half-life and intrinsic clearance”; the half-life at 0.2 μM was found to be 1.38 h; the microsomal CLint at 0.2 μM is 16.8 µL/min/mg; the CLint scaled at 0.2 μM turned out to be 15.1 mL/min/kg. Besides, the activation at 10 µM at 5-HT2A receptor was determined as 40%. Besides, at 5-HT2C receptor, the inhibition was determined as 95%.
Take `COc1ccc2c3c([nH]c2c1)CCNCC3` [8-methoxy-1,2,3,4,5,6-hexahydroazepino[4,5-b]indole, reference compound]: the activation at 5 µM at 5-HT2B receptor was determined as 0.6%. Further, in series [1], the half-life at 0.2 μM is 1.82 h, the microsomal CLint at 0.2 μM was 12.7 µL/min/mg and the intrinsic metabolic clearance (CLint scaled) at 0.2 μM worked out at 11.4 mL/min/kg. Also, the activation at 10 µM on 5-HT2A receptor came out at 85.3%. For the same compound, the inhibition on 5-HT2C receptor is 98.1%.
As to `[2H]C([2H])([2H])Oc1ccc2c3c([nH]c2c1)CCN(C)CC3` [Compound 1, 3-methyl-8-(trideuteriomethoxy)-2,4,5,6-tetrahydro-1H-azepino[4,5-b]indole], on 5-HT2B receptor, the activation at 5 µM was -8.3%. In addition, in series [1], the “difference” value was “differences in half-life and intrinsic clearance”; the half-life at 0.2 μM stood at 1.35 h; the microsomal CLint at 0.2 μM was 17.2 µL/min/mg; the CLint scaled at 0.2 μM was found to be 15.4 mL/min/kg. At 5-HT2A receptor, the activation at 10 µM amounted to 30.4%. Besides, at 5-HT2C receptor, the inhibition stood at 95.5%.
